For 15 compounds, Ki results are on record in patent US10913733B2, “Substituted piperidines thiazolyl acetamides as glycosidase inhibitors and uses thereof” (priority 2015, dated 2021).

Structures are written as SMILES.

This assay deals with human O-GlcNAcase (Homo sapiens (Human), UniProt O60502). The assay can be described thus: Assay for determination of KI values for inhibition of O-GlcNAcase activity. Type of assay: biochemical. To be noted: purified human O-GlcNAcase 0.7 nM; substrate 2 mM 4-Methylumbelliferyl N-acetyl-β-D-glucosaminide; pH 7.0; room temperature; Cheng-Prusoff; read-out: hOGA Ki. The protocol: Assay for Determination of KI Values for Inhibition of O-GlcNAcase Activity
Chain of human O-GlcNAcase (O60502 whole entry): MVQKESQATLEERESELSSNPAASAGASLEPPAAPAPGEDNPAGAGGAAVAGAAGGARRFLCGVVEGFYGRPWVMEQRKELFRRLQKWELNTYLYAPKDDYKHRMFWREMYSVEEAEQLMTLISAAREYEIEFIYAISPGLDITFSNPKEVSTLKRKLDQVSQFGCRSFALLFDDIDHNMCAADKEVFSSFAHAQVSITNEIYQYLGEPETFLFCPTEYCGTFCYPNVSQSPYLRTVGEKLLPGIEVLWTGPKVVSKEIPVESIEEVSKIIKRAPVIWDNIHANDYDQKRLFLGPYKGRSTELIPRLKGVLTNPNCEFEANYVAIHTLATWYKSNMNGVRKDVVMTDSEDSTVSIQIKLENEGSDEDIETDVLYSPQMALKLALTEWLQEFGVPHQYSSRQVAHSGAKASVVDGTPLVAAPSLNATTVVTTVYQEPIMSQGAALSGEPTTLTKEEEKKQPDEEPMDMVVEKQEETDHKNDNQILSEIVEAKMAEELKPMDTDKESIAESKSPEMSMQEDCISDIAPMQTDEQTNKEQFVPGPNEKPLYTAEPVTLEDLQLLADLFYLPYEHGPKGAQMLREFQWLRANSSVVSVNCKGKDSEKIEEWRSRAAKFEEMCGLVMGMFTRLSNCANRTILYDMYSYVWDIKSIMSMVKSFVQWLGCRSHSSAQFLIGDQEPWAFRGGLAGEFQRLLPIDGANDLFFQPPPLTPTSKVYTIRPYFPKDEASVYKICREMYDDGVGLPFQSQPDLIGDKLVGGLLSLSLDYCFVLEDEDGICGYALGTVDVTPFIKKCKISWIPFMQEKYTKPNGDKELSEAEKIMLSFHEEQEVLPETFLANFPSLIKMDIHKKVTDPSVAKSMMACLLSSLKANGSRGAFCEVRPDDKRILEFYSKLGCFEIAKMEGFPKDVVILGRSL
Experimental procedure for kinetic analyses: Enzymatic reactions were carried out in a reaction containing 50 mM NaH2PO4, 100 mM NaCl and 0.1% BSA (pH 7.0) using 2 mM 4-Methylumbelliferyl N-acetyl-β-D-glucosaminide dihydrate (Sigma M2133) dissolved in ddH2O, as a substrate. The amount of purified human O-GlcNAcase enzyme used in the reaction was 0.7 nM. Test compound of varying concentrations was added to the enzyme prior to initiation of the reaction. The reaction was performed at room temperature in a 96-well plate and was initiated with the addition of substrate. The production of fluorescent product was measured every 60 sec for 45 min with a Tecan Infinite M200 plate-reader with excitation at 355 nm and emission detected at […], with 4-Methylumbelliferone (Sigma M1381) used to produce a standard curve. The slope of product production was determined for each concentration of compound tested and plotted, using standard curve fitting algorithms for sigmoidal dose response curves. The values for a four parameter logistic curve fit of the data were determined. KI values were determined using the Cheng-Prusoff equation; the Km of O-GlcNAcase for substrate was 0.2 mM.

For `COc1ccc(/C=C2/CCN(Cc3cnc(NC(C)=O)s3)[C@H](C)C2)cc1` [Example 40, (R,Z)-N-(5-((4-(4-methoxybenzylidene)-2-methylpiperidin-1-yl)methyl)thiazol-2-yl)acetamide], the Ki turned out to be 71.2 nM. In the case of `COc1ccc(/C=C2\CCN(Cc3cnc(NC(C)=O)s3)[C@@H](C)C2)cc1` [Example 41, (S,E)-N-(5-((4-(4-methoxybenzylidene)-2-methylpiperidin-1-yl)methyl)thiazol-2-yl)acetamide], the Ki was found to be 9.61 nM. As for `CC(=O)Nc1ncc(CN2CCC(=Cc3ccc(OCCF)cc3)CC2)s1` [Example 42, N-{5-[(4-{[4-(2-fluoroethoxy)phenyl]methylidene}piperidin-1-yl)methyl]-1,3-thiazol-2-yl}acetamide], the inhibition constant (Ki) is 0.625 nM. On to `COc1cccc(C=C2CCN(Cc3cnc(NC(C)=O)s3)CC2)c1` [Example 43, N-(5-((4-(3-methoxybenzylidene)piperidin-1-yl)methyl)thiazol-2-yl)acetamide], for which the Ki was 2.93 nM.

Turning to `CC(=O)Nc1ncc(CN2CCC(=Cc3cccc(O)c3)CC2)s1` [Example 44, N-(5-((4-(3-hydroxybenzylidene)piperidin-1-yl)methyl)thiazol-2-yl)acetamide], the Ki amounted to 1.13 nM. In the case of `C=CCOc1ccc(C=C2CCN(Cc3cnc(NC(C)=O)s3)CC2)cc1` [Example 45, N-{5-[(4-{[4-(prop-2-en-1-yloxy)phenyl]methylidene}piperidin-1-yl)methyl]-1,3-thiazol-2-yl}acetamide], the inhibition constant (Ki) amounted to 6.11 nM. On to `COc1ccc(C=C2CCN(Cc3cnc(NC(C)=O)s3)CC2)cc1` [Example 46, N-[5-({4-[(4-methoxyphenyl)methylidene]piperidin-1-yl}methyl)-1,3-thiazol-2-yl]acetamide], for which the inhibitory constant (Ki) was determined as 2 nM.

`COc1ccccc1C=C1CCN(Cc2cnc(NC(C)=O)s2)CC1` [Example 47, N-(5-((4-(2-methoxybenzylidene)piperidin-1-yl)methyl)thiazol-2-yl)acetamide]: the Ki came to 2.45 nM.

For `CC(=O)Nc1ncc(CN2CCC(=Cc3ccc(-c4ccccc4)cc3)CC2)s1` [Example 48, N-(5-((4-([1,1′-biphenyl]-4-ylmethylene)piperidin-1-yl)methyl)thiazol-2-yl)acetamide], the Ki was found to be 53.8 nM. Take `CC(=O)Nc1ncc(CN2CCC(=Cc3ccc([N+](=O)[O-])nc3)CC2)s1` [Example 49]: the Ki stood at 1.6 nM. On to `CC(=O)Nc1ncc(CN2CCC(=Cc3ccc(CCO)cc3)CC2)s1` [Example 50, N-(5-((4-(4-(2-hydroxyethyl)benzylidene)piperidin-1-yl)methyl)thiazol-2-yl)acetamide], for which the Ki stood at 0.241 nM. With `CC(=O)Nc1ncc(CN2CC/C(=C/c3ccc(F)nc3)C[C@H]2C)s1` [Example 51, (R,Z)—N-(5-((4-((6-fluoropyridin-3-yl)methylene)-2-methylpiperidin-1-yl)methyl)thiazol-2-yl)acetamide], the inhibition constant Ki was 218 nM. With `CC(=O)Nc1ncc(CN2CC/C(=C/c3ccc(F)nc3)C[C@@H]2C)s1` [Example 52, (S,Z)—N-(5-((4-((6-fluoropyridin-3-yl)methylene)-2-methylpiperidin-1-yl)methyl)thiazol-2-yl)acetamide], the inhibition constant (Ki) turned out to be 0.389 nM. For `CC(=O)Nc1ncc(CN2CC/C(=C\c3ccc(F)nc3)C[C@H]2C)s1` [Example 53, (R,E)-N-(5-((4-((6-fluoropyridin-3-yl)methylene)-2-methylpiperidin-1-yl)methyl)thiazol-2-yl)acetamide], the inhibition constant Ki stood at 123 nM. For the compound `CC(=O)Nc1ncc(CN2CC/C(=C\c3ccc(F)nc3)C[C@@H]2C)s1` [Example 54, (S,E)-N-(5-((4-((6-fluoropyridin-3-yl)methylene)-2-methylpiperidin-1-yl)methyl)thiazol-2-yl)acetamide], the inhibition constant (Ki) is 11.8 nM.
